Experimental data from US20160152831A1, “YELLOW COLORANT FOR HAIR DYEING, COMPOSITION FOR HAIR DYEING, AND HAIR DYEING METHOD” (HODOGAYA CHEMICAL CO., LTD., priority 2013, published 2016).

What was measured:
[1] = Light-fastness test of dyed hair (xenon fade meter); assay type: physicochemical, human; details: 330 W/m^2, 20 hours; for Color Difference (ΔE*): before vs after test; for Residual Ratio %: dyeing density after test to before test
Description: A composition for hair dyeing having a pH of 6 was prepared according to the compounding formation as shown in Table 6 by using Yellow 29 as the dye. By using the thus-prepared composition for hair dyeing, a test sample was prepared according to the same method as in Example 1. The resultant test sample was exposed to white light at an irradiation dose of 330 W/m^2 for 20 hours, by using a xenon long-life fade meter light-fastness tester Suga Test Instrument, FAL-25AX-HC-BEC Model), and the dyeing density (K/Sd) and the color values (L*, a*, b*) before and after the test, and the color difference (ΔE*) were determined. The light-fastness test was carried out under the condition where the temperature of the test sample could be from 60 to 66° C.

[2] = Shampooing-fastness test of dyed hair; assay type: physicochemical, human; details: for Color Difference (ΔE*): before vs after test; for Color Difference (ΔE*) / Residual Ratio %: 5 cycles; for Residual Ratio %: dyeing density after test to before test
Description: The test sample with Yellow 29 prepared in Example 1 was tested according to the shampooing-fastness test mentioned below, and the dyeing density (K/Sd) and color difference (ΔE*) before and after the test were determined. In the Table, the residual ratio (%) means the ratio of the dyeing density after the test to the dyeing density before the test.
The test sample was subjected to a cycle operation of (1) shampooing followed by (2) treatment as mentioned below, repeatedly five times in all, and then spontaneously dried at room temperature (about 20° C.).
Shampoo liquid: aqueous 5% sodium laurylsulfate solution
Bath ratio: 1/10 (mass of shampooing liquid relative to 1 g mass of dyed hair)
Processing temperature: 45° C.
Processing time: 20 minutes
Post-treatment: rinsing with water
Treatment liquid: aqueous 5% trimethylstearylammonium chloride solution
Bath ratio: 1/10 (mass of treatment liquid relative to 1 g mass of dyed hair)

light-fastness [1]	Color Difference (ΔE*) [1]	Residual Ratio % [1]	Color Difference (ΔE*) [2]	Residual Ratio % [2]	shampooing-fastness ([2]; compared with Yellow 87)	SMILES
low	10.2	98%	–	–	–	Cc1nn(-c2ccccc2)c(O)c1/N=N/c1cccc([N+](C)(C)C)c1.[Cl-] [Yellow 57, C.I. Basic Yellow 57, reference compound]
–	–	–	21.8	33%	–	CN(/N=C\c1cc[n+](C)cc1)c1ccccc1 [Yellow 87, C.I. Basic Yellow 87, reference compound]
excellent	2.8	89%	6.6	82%	extremely excellent	Cc1ccc(N(C)/N=C/C2=[N+](C)c3ccccc3C2(C)C)cc1 [Yellow 29, C. I. Basic Yellow 29]
